What was measured:
[1] = system: FGF-induced BrdU incorporation; experiment: FGF-induced BrdU incorporation assay; format: cell-based; settings: read-out: FGF-Induced BrdU Incorp. IC50
Method: (§1) PDGF-, FGF-, and EGF-Induced BRDU Incorporation Assay
(§2) 1. Cells were seeded at 8000 cells/well in DMEM, 10% CS, 2 mM Gln in a 96 well plate. Cells were incubated overnight at 37° C. in 5% CO2.
(§3) 2. After 24 hours, the cells were washed with PBS, and then were serum starved in serum free medium (0% CS DMEM with 0.1% BSA) for 24 hours.
(§4) 3. On day 3, ligand (PDGF=3.8 nM, prepared in DMEM with 0.1% BSA) and test compounds were added to the cells simultaneously. The negative control wells received serum free DMEM with 0.1% BSA only; the positive control cells received the ligand (PDGF) but no test compound. Test compounds were prepared in serum free DMEM with ligand in a 96 well plate, and serially diluted for 7 test concentrations.
(§5) 4. After 20 hours of ligand activation, diluted BrdU labeling reagent (1:100 in DMEM, 0.1% BSA) was added and the cells were incubated with BrdU (final concentration=10 μM) for 1.5 hours.
(§6) 5. After incubation with labeling reagent, the medium was removed by decanting and tapping the inverted plate on a paper towel. FixDenat solution was added (50 μL/well) and the plates were incubated at room temperature for 45 minutes on a plate shaker.
(§7) 6. The FixDenat solution was thoroughly removed by decanting and tapping the inverted plate on a paper towel. Milk was added (5% dehydrated milk in PBS, 200 μL/well) as a blocking solution and the plate was incubated for 30 minutes at room temperature on a plate shaker.
(§8) 7. The blocking solution was removed by decanting and the wells were washed once with PBS. Anti-BrdU-POD solution (1:100 dilution in PBS, 1% BSA) was added (100 μL/well), and the plate was incubated for 90 minutes at room temperature on a plate shaker.
(§9) 8. The antibody conjugate was thoroughly removed by decanting and rinsing the wells 5 times with PBS, and the space was dried by inverting and tapping on a paper towel.
(§10) 9. TMB substrate solution was added (100 μL/well) and incubated for 20 minutes at room temperature on a plate shaker until color development was sufficient for photometric detection.
(§11) 10. The absorbance of the samples were measured at 410 nm (in “dual wavelength” mode with a filter reading at 490 nm, as a reference wavelength) on a Dynatech ELISA plate reader.
(§12) The IC50 values were measured for several of the compounds of the invention. These values are depicted in Table 10.

[2] = system: 3T3 cell line genetically engineered to express human PDGF-R; experiment: PDGF-induced BrdU incorporation assay; format: cell-based; settings: NIH3T3; 3T3 cells expressing human PDGF-R, PDGF 3.8 nM; read-out: PDGF-Induced BrdU Incorp. IC50
Method: (1) PDGF: human PDGF B/B; 1276-956, Boehringer Mannheim, Germany
(8) 3T3 cell line genetically engineered to express human PDGF-R.
as §2, §3, §4, §5, §6, §7, §8, §9, §10, §11, §12

HUV-EC-C cells; VEGF = experiment: HUVEC-VEGF 3H-thymidine incorporation assay; format: cell-based, human; settings: Homo sapiens
Method: The following protocol is used to measure a compound's activity against VEGF and aFGF, all of which are expressed by HUVEC cells.
1. […] After cells have detached from the flask, add an equal volume of assay medium and transfer to a 50 mL sterile centrifuge tube (Fisher Scientific; catalogue no. 05-539-6).
2. Wash the cells with about 35 mL assay medium in the 50 mL sterile centrifuge tube by adding the assay medium, centrifuge for 10 minutes at approximately 200×g, aspirate the supernatant, and resuspend with 35 mL D-PBS. Repeat the wash two more times with D-PBS, resuspend the cells in about 1 mL assay medium/15 cm^2 of tissue culture flask. Assay medium consists of F12K medium (Gibco BRL; catalogue no. 21127-014)+0.5% heat-inactivated fetal bovine serum. Count the cells with a Coulter Counter® (Coulter Electronics, Inc.) and add assay medium to the cells to obtain a concentration of 0.8-1.0×10^5 cells/mL.
3. Add cells to 96-well flat-bottom plates at 100 μL/well or 0.8-1.0×10^4 cells/well; incubate ˜24h at 37° C., 5% CO^2.
1. Make up two-fold drug titrations in separate 96-well plates, generally 50 μM on down to 0 μM. Use the same assay medium as mentioned in day 0, step 2 above. Titrations are made by adding […] of drug at 200 μM (4× the final well concentration) to the top well of a particular plate column. Since the stock drug concentration is usually 20 mM in DMSO, the 200 μM drug concentration contains 2% DMSO.
Therefore, diluent made up to 2% DMSO in assay medium (F12K+0.5% fetal bovine serum) is used as diluent for the drug titrations in order to dilute the drug but keep the DMSO concentration constant. Add this diluent to the remaining wells in the column at 60 μL/well. Take 60 μL from the 120 μL of 200 μM drug dilution in the top well of the column and mix with the 60 μL in the second well of the column. Take 60 μL from this well and mix with the 60 μL in the third well of the column, and so on until two-fold titrations are completed. When the next-to-the-last well is mixed, take 60 μL of the 120 μL in this well and discard it. Leave the last well with 60 μL of DMSO/media diluent as a non-drug-containing control. Make 9 columns of titrated drug, enough for triplicate wells each for 1) VEGF (obtained from Pepro Tech Inc., catalogue no. 100-200, 2) endothelial cell growth factor (ECGF) (also known as acidic fibroblast growth factor, or aFGF) (obtained from Boehringer Mannheim Biochemica, catalogue no. 1439 600); or, 3) human PDGF B/B (1276-956, Boehringer Mannheim, Germany) and assay media control. ECGF comes as a preparation with sodium heparin.
2. Transfer 50 μL/well of the drug dilutions to the 96-well assay plates containing the 0.8-1.0×10^4 cells/100 μL/well of the HUV-EC-C cells from day 0. and incubate ˜2 h at 37° C., 5% CO2.
3. […] As with the drugs, the growth factor concentrations are 4× the desired final concentration. Use the assay media from day 0 step 2 to make the concentrations of growth factors. Incubate approximately 24 hours at 37° C., 5% CO2. Each well will have 50 μL drug dilution, 50 μL growth factor or media, and 100 μL cells, =200 μL/well total. Thus the 4× concentrations of drugs and growth factors become 1× once everything has been added to the wells.
1. Add ^3H-thymidine (Amersham; catalogue no. TRK-686) at 1 μCi/well (10 μL/well Of 100 μCi/mi solution made up in RPMI media +10% heat-inactivated fetal bovine serum) and incubate μ24 h at 37° C., 5% CO2. RPMI was obtained from Gibco BRL, catalogue no. 11875-051.
1. Freeze plates overnight at […]
1. Thaw plates and harvest with a 96-well plate harvester (Tomtec Harvester 96®) onto filter mats (Wallac; catalogue no. 1205-401); read counts on a Wallac Betaplate™ liquid scintillation counter.
The IC50 values were measured for several of the compounds of the invention.

[3] = system: EGF-induced BrdU incorporation; experiment: EGF-induced BrdU incorporation assay; format: cell-based; settings: read-out: EGF-Induced BrdU Incorp. IC50
Method: as §1, §2, §3, §4, §5, §6, §7, §8, §9, §10, §11, §12

Compound	IC50 [1] [µM]	IC50 [2] [µM]	IC50 (HUV-EC-C cells; VEGF) [µM]	IC50 [3] [µM]
NC(=O)CCc1c(C=C2C(=O)Nc3ccccc32)[nH]c2c1CCCC2 [IN-010, 3-[2-(2-Oxo-1,2-dihydro-indol-3-ylidenemethyl)-4,5,6,7-tetrahydro-1H-indol-3-yl]-propionamide]	> 50	3.5	< 0.03	95.4
COc1ccc2c(c1)NC(=O)C2=Cc1[nH]c2c(c1CCC(=O)O)CCCC2 [IN-007, 3-[2-(6-Methoxy-2-oxo-1,2-dihydro-indol-3-ylidenemethyl)-4,5,6,7-tetrahydro-1H-indol-3-yl]-propionic acid]	42.1	3	0.02	> 100

— US20040067531A1, “Methods of modulating protein tyrosine kinase function with substituted indolinone compounds” (SUGEN, INC., priority 1997, published 2004)
